Assay results taken from patent US4965280A, “Antifungal carbinols” (E. I. Du Pont de Nemours and Company, priority 1989, dated 1990).

What was measured:
Test in all cases: Test E
GREEN FOXTAIL = type: in vivo, Setaria viridis
PARK WHEAT = type: in vivo, Triticum aestivum cv. Park
LAMBSQUARTER = type: in vivo, Chenopodium album
PERSN SPEEDWELL = type: in vivo, Veronica persica
ITALN. RYEGRASS = type: in vivo, Lolium multiflorum
MUSTARD SPP. = type: in vivo, Brassica spp.
JET RAPE = type: in vivo, Brassica napus cv. Jet Neuf
WILD OATS = type: in vivo, Avena fatua
KOCHIA = type: in vivo, Kochia scoparia
SNTLS CHAMOMILE = type: in vivo, Matricaria indora

With `C=C(c1ccc(F)cc1)C(O)(Cn1cncn1)c1ccc(F)cc1F` (centres unmarked) [Example 4, 2-(2,4-Difluorophenyl)-3-(4-fluorophenyl)-1-(1H-1,2,4-triazol-1-yl)-3-buten-2-ol] the plant response (GREEN FOXTAIL; POSTEMERGENCE 0064 GM/HA) was 0%, the plant response (GREEN FOXTAIL; POSTEMERGENCE 0125 GM/HA) was 20% and the plant response (GREEN FOXTAIL; POSTEMERGENCE 0250 GM/HA) was 20%. For the same compound, the plant response (GREEN FOXTAIL; POSTEMERGENCE 0500 GM/HA) was 80%, the plant response (GREEN FOXTAIL; PREEMERGENCE 0500 GM/HA) was 100% and the plant response (PARK WHEAT; POSTEMERGENCE 0064 GM/HA) was 0%. It also gave a plant response (PARK WHEAT; POSTEMERGENCE 0125 GM/HA) of 10%, a plant response (PARK WHEAT; POSTEMERGENCE 0250 GM/HA) of 30% and a plant response (PARK WHEAT; POSTEMERGENCE 0500 GM/HA) of 50%. For the same compound, the plant response (PARK WHEAT; PREEMERGENCE 0500 GM/HA) was 80%, the plant response (LAMBSQUARTER; POSTEMERGENCE 0064 GM/HA) was 0% and the plant response (LAMBSQUARTER; POSTEMERGENCE 0125 GM/HA) was 20%. It also gave a plant response (LAMBSQUARTER; POSTEMERGENCE 0250 GM/HA) of 20%, a plant response (LAMBSQUARTER; POSTEMERGENCE 0500 GM/HA) of 70% and a plant response (LAMBSQUARTER; PREEMERGENCE 0500 GM/HA) of 100%. The plant response (PERSN SPEEDWELL; POSTEMERGENCE 0064 GM/HA) was 20%, the plant response (PERSN SPEEDWELL; POSTEMERGENCE 0125 GM/HA) was 70% and the plant response (PERSN SPEEDWELL; POSTEMERGENCE 0250 GM/HA) was 100%. It also gave a plant response (PERSN SPEEDWELL; POSTEMERGENCE 0500 GM/HA) of 100%, a plant response (PERSN SPEEDWELL; PREEMERGENCE 0500 GM/HA) of 90% and a plant response (ITALN. RYEGRASS; POSTEMERGENCE 0064 GM/HA) of 0%. For the same compound, the plant response (ITALN. RYEGRASS; POSTEMERGENCE 0125 GM/HA) was 0%, the plant response (ITALN. RYEGRASS; POSTEMERGENCE 0250 GM/HA) was 30% and the plant response (ITALN. RYEGRASS; POSTEMERGENCE 0500 GM/HA) was 80%. It also gave a plant response (ITALN. RYEGRASS; PREEMERGENCE 0500 GM/HA) of 70%, a plant response (MUSTARD SPP.; POSTEMERGENCE 0064 GM/HA) of 20% and a plant response (MUSTARD SPP.; POSTEMERGENCE 0125 GM/HA) of 40%. For the same compound, the plant response (MUSTARD SPP.; POSTEMERGENCE 0250 GM/HA) was 40%, the plant response (MUSTARD SPP.; POSTEMERGENCE 0500 GM/HA) was 80% and the plant response (MUSTARD SPP.; PREEMERGENCE 0500 GM/HA) was 50%. It also gave a plant response (JET RAPE; POSTEMERGENCE 0064 GM/HA) of 0%, a plant response (JET RAPE; POSTEMERGENCE 0125 GM/HA) of 20% and a plant response (JET RAPE; POSTEMERGENCE 0250 GM/HA) of 20%. The plant response (JET RAPE; POSTEMERGENCE 0500 GM/HA) was 30%, the plant response (JET RAPE; PREEMERGENCE 0500 GM/HA) was 40% and the plant response (WILD OATS; POSTEMERGENCE 0064 GM/HA) was 0%. The plant response (WILD OATS; POSTEMERGENCE 0125 GM/HA) was 0%, the plant response (WILD OATS; POSTEMERGENCE 0250 GM/HA) was 0% and the plant response (WILD OATS; POSTEMERGENCE 0500 GM/HA) was 30%. The plant response (WILD OATS; PREEMERGENCE 0500 GM/HA) was 90%, the plant response (KOCHIA; POSTEMERGENCE 0064 GM/HA) was 0% and the plant response (KOCHIA; POSTEMERGENCE 0125 GM/HA) was 30%. It also gave a plant response (KOCHIA; POSTEMERGENCE 0250 GM/HA) of 70%, a plant response (KOCHIA; POSTEMERGENCE 0500 GM/HA) of 90% and a plant response (KOCHIA; PREEMERGENCE 0500 GM/HA) of 100%. For the same compound, the plant response (SNTLS CHAMOMILE; POSTEMERGENCE 0064 GM/HA) was 30%, the plant response (SNTLS CHAMOMILE; POSTEMERGENCE 0125 GM/HA) was 50% and the plant response (SNTLS CHAMOMILE; POSTEMERGENCE 0250 GM/HA) was 70%. It also gave a plant response (SNTLS CHAMOMILE; POSTEMERGENCE 0500 GM/HA) of 85% and a plant response (SNTLS CHAMOMILE; PREEMERGENCE 0500 GM/HA) of 100%.
